From paper PMC12814168, “Fast, Bright, and Reversible Fluorescent Labeling of Rhodamine-Binding Proteins” (Journal of the American Chemical Society, 2025)
pKd: −log10 of the molar value. “And” between values parts separate entries of the source, which are not always exact repeats. Identical values can stand only once. Like-named read-outs stand apart in the source and are kept apart here.

Legend:
Rho-tag [1] = target: T1, Rho-tag (Chlorobaculum tepidum, UniProt Q8KFZ1, V17Q/Q25R/S33N/E36V/H40T/K51V/F62Y/M64F/S65D/A66M/G67E/E70D/V87I/G107D/D121K/F125Y/D126E/N138A/S152V); assay: Fluorescence polarization with 0.5-20 nM dye (0.5 nM TMR in Figure S6 titrations) and serial protein dilutions in 50 mM HEPES, 50 mM NaCl, pH 7.3 with BSA, 25 °C, N at least 3.; format: binding; details: SD, n = 3; read-out: K D, other Rho-tag forms and JF549
T1 construct: gene CT0179; His10-TEV, recombinant from E. coli
T1 sequence (Q8KFZ1 entry or part of it with the stated changes): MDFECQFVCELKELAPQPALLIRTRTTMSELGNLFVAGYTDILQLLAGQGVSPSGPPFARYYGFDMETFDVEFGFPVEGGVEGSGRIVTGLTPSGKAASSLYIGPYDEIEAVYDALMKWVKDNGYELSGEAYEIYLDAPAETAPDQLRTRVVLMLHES
Method: (§1) electroporation buffer, aliquoted (12 x 50 µL) on ice, and used immediately for electroporation with 1–5 µg DNA precipitated DNA. Cells were transferred to pre-chilled 0.2 cm gap electroporation cuvettes (Bio-Rad), and electroporated using a Gene Pulser Xcell (0.54 kV, 25 µF, infinite resistance, exponential decay). Cells were recovered in 2 mL YPDS at 30 °C, shaking for 1 h and afterwards expanded in 100 mL SDCAA at 30 °C for 2 days.
(§2) YSD protein expression, staining and sorting
(§3) SGCAA medium was used for induction and cells were grown at 30 °C, 250 rpm for 20 h. […] Samples were filtered through 5 mL round-bottom tubes with cell strainer caps (Falcon) and analyzed directly by FACS. […]
(§4) PMT voltages were set based on negative controls (no protein expression). Gates were applied for FSC, SSC, and fluorescence; signals >10³ (bilirubin or rhodamine dyes) were considered positive, background ≤10². […]
(§5) regions were amplified via KOD PCR reaction using primers containing unique barcodes (NGS adaptor ligation oligos, Eurofins Genomics) analyzed by NGS sequencing (Illumina technology, Eurofins Genomics). The NGS results were analyzed using a custom-build pipeline as described previously. Alternatively, plasmid DNA was transformation into E.cloni 10G and single colonies were analyzed by Sanger sequencing (Eurofins). […]
(§6) Stopped-flow kinetic fluorescence anisotropy […]
(§7) FA: fluorescence anisotropy, B: max. […]

[2] = Spectral properties: absolute quantum yield, extinction coefficient, brightness; format: physicochemical
Method: Serially fluorophore dilutions (0 – 3 μM) were prepared in activity buffer in presence or absence […]
Measurements were performed in 200 μL volumes in clear-bottom non-binding […]
recorded on the Spark20M microplate reader (Tecan). Following baseline correction, the absorbance was plotted against the dye concentration and the data were fitted linearly. Path […]
coefficients were calculated via the Lambert-Beer law (Equation 1).
Absolute quantum yields were determined at room temperature using a Hamamatsu Quantaurus-QY spectrometer (C11347 model). Rhodamine dyes (1 μM) were tested with and without excess […]
Samples were prepared in 800 μL glass vials
Quantum yield represent as mean ± standard deviation from three technical replicates. The brightness was thereafter calculated using Equation 5. […]

SiR-tag = target: T2, SiR-tag; assay: Fluorescence intensity titration of dye (not given; JF646 by comparison with the text) with serial protein dilutions, 50 mM HEPES, 50 mM NaCl, pH 7.3 with BSA, 25 °C, n at least 3.; format: binding; details: SD, n = 3; read-out: KD [M] (Supplementary Table 10, replicates)
T2 construct: 2 + PROSS8 background combined with P57M/F58Y/R60L and G63N/F64K/D65N/M66H; His10-TEV
Excerpt: (§8) Supplementary Table 10 | Characterization of putative SiR-tag variants. variant sequence KD [M] TM [° C]
(§9) Binding affinity determined via fluorescence intensity. *data from single replicate. If not stated otherwise, average data and standard deviation from n ≥ 3 individual replicates. Thermostability (T M) determined via […]
(§10) Supplementary Table 11 | Plasmids deposited on Addgene
(§11) Addgene ID plasmid insert expression organism
(§12) 249667 pcDNA5/FRT/TO H2B-Rho-tag-T2A-mEGFP mammalian cells
(§13) 249668 pcDNA5/FRT/TO H2B-SiR-tag-T2A-mEGFP mammalian cells
(§14) 249669 pcDNA5/FRT/TO CD86-Rho-tag mammalian cells
(§15) 249670 pcDNA5/FRT/TO CD86-SiR-tag mammalian cells
(§16) 249671 pTol2-HuC Rho-tag-Pro30-mEGFP-NLS3x zebrafish […]
as §3, §4
(§17) regions were amplified via KOD PCR reaction using primers containing unique barcodes (NGS adaptor ligation oligos, Eurofins Genomics) analyzed by NGS sequencing (Illumina technology, Eurofins Genomics). The NGS results were analyzed using a custom-build pipeline as described previously. […]

variant 2 = target: T3, variant 2; assay: as above; format: binding; details: SD, n = 3; read-out: KD [M] (Supplementary Table 10, replicates)
T3 construct: Rho-tag background, loop2 library hit
Excerpt: as §8, §9, §10, §11, §12, §13, §14, §15, §16, §3, §4, §17

cpRho-tag = assay: Fluorescence polarization with 0.5-20 nM dye (0.5 nM TMR in Figure S6 titrations) and serial protein dilutions in 50 mM HEPES, 50 mM NaCl, pH 7.3 with BSA, 25 °C, N at least 3.; format: binding; details: SD, n = 3; read-out: K D, other Rho-tag forms and JF549
Method: as §1, §2, §3, §4, §5, §6, §7

BABP = target: T4, BABP (Gallus gallus, UniProt P80226); assay: Fluorescence polarization at constant 20 nM TMR with serial protein dilutions (0-200 uM) in 50 mM HEPES, 50 mM NaCl, pH 7.3 with BSA, 25 °C, N at least 3.; format: binding; details: SD, n = 3
T4 construct: gene FABP1; recombinant from E. coli, N-terminal His10-TEV (pET51b), 15 kDa
T4 sequence (P80226 2-126): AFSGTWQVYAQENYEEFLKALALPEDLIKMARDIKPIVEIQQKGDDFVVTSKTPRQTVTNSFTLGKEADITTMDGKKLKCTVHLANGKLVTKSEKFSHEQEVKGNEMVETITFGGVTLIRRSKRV
Excerpt: (§18) 1 Dye and candidate selection for the development of Rho-tags. A) Chemical structure of TMR and SiR and their corresponding HaloTag Ligand (HTL) derivatives. […] B) BOILED-Egg representation generated with SwissADME for molecules shown in (A). Correlation between the topological polar surface area (TPSA) and predicted water partitioning coefficient (WlogP). Gray area–predicted low passive absorption to the gastrointestinal (GI) system and limited brain access (BBB). Egg white–high probability for GI absorption. Egg yolk–high probability for BBB permeation. Blue dot–substrate is predicted to be actively exported from the central nervous system. […]
as §3, §4, §17

SAV2435 = target: T5, SAV2435 (Staphylococcus aureus, UniProt A0A0H3K0Y5); assay: as above; format: binding; details: SD, n = 3
T5 construct: recombinant from E. coli, N-terminal His10-TEV (pET51b), 20 kDa
T5 sequence (A0A0H3K0Y5 entry or part of it): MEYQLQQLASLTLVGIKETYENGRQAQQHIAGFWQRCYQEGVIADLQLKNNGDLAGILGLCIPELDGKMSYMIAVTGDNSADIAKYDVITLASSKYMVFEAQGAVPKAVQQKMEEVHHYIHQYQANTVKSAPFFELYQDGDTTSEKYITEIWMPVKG
Excerpt: as §18, §3, §4, §17

Rho-tag [3] = target: T6, Rho-tag (Chlorobaculum tepidum, UniProt Q8KFZ1, A66M/D121K/D126E/E36V/E70D/F125Y/F62Y/G107D/G67E/H40T/K51V/M64F/N138A/Q25R/S152V/S33N/S65D/V17Q/V87I); assay: Fluorescence polarization at constant 20 nM TMR-linked ligand with serial Rho-tag dilutions (0-200 uM), pH 7.3, 25 °C, three independent measurements.; format: binding; details: SD, n = 3
T6 construct: gene CT0179; His10-TEV, recombinant from E. coli
T6 sequence (Q8KFZ1 entry or part of it with the stated changes): as the sequence (Q8KFZ1 entry or part of it with the stated changes) above
Method: (§19) Binding affinities KD was derived from fluorescence polarization experiments at constant dye concentration
(§20) (20 nM) and serial protein dilutions (0 – 200 µM). Average data and standard deviation from three
independent measurements (N = 3).
(§21) Biochemical and Spectral Characterization
(§22) Serial protein dilutions (0 – 200 μM) were prepared in activity buffer and transferred to black flat bottom low-volume 384-well plates (Greiner). Rhodamine dyes (0.5 – 20 nM) were added in activity buffer containing 1% (w/v) bovine serum albumin (BSA, Fraction V, Roth) using a 384-channel VIAFLO pipettor (Integra) at a 1:1 mixing ratio.
(§23) JF 646) or fluorescence polarization (FP, all other dyes) measurements were conducted on a Spark20M microplate reader (Tecan) at 25 °C in technical triplicates. Excitation and emission settings are summarized in Method Table 5.
(§24) For data processing, technical triplicates were averaged and normalized between 0 ( i.e. free dye)
(§25) and 1 (fully bound dye). The dissociation constants KD were determined by fitting a single-site
binding model (Equation 2) to the data.
(§26) at least three independent experiments (N ≥ 3), unless otherwise mentioned.
(§27) between dyes or proteins, log 10 fold changes relative to a reference e.g., parental protein were
(§28) Y: fluorescence intensity [a.u.] or fluorescence polarization [mFP], A: min. FI / FP, B: max.
(§29) protein concentration [mol/L], h: Hill coefficient, K D: dissociation constant [mol/L].

Rho-tag [4] = target: T1, Rho-tag; assay: as above; format: binding; details: SD, n = 3; read-out: KD [µM] (Supplementary Table 4)
Method: as §19, §20
independent measurements (N = 3).
as §21, §22, §23, §24, §25
binding model (Equation 2) to the data.
as §26, §27, §28, §29

[5] = with 20 µM Rho-tag (TMR, JF549) or SiR-tag (SiR, JF646)

O=C1OC2(c3ccc(N4CCC4)cc3Oc3cc(N4CCC4)ccc32)c2ccccc21 [JF549, Janelia Fluor 549 (TMR derivative)]
pKd (Rho-tag [1]): 8.40

O=C1OC2(c3ccc(N4CCC4)cc3Oc3cc(N4CCC4)ccc32)c2ccccc21 [JF549]
Absolute quantum yield Φ [2]: 0.844 ± 0.008
Brightness ε × Φ [2]: 128 ± 3
Extinction coefficient ε [2]: 152 ± 22
Extinction coefficient ε ([2]; buffer): 101 ± 08 M-1cm-1 × 103
Absolute quantum yield Φ ([2]; buffer (unbound dye)): 0.842 ± 0.012
Absolute quantum yield Φ [2, 5]: 0.87 ± 0.02 and 0.871 ± 0.018
Brightness ε × Φ [2, 5]: 105 ± 4 M-1cm-1 × 103
Extinction coefficient ε [2, 5]: 121 ± 22 M-1cm-1 × 103

C[Si]1(C)c2cc(N3CCC3)ccc2C2(OC(=O)c3ccccc32)c2ccc(N3CCC3)cc21 [JF646, Janelia Fluor 646 (SiR derivative)]
Kd (SiR-tag): 2e-08 M
Kd (variant 2): 9.1e-08 M

C[Si]1(C)c2cc(N3CCC3)ccc2C2(OC(=O)c3ccccc32)c2ccc(N3CCC3)cc21 [JF646]
Absolute quantum yield Φ [2]: 0.554 ± 0.011
Extinction coefficient ε [2]: 162 ± 12
Brightness ε × Φ ([2]; buffer): 051 ± 1 M-1cm-1 × 103
Extinction coefficient ε ([2]; buffer): 106 ± 24 M-1cm-1 × 103
Absolute quantum yield Φ ([2]; buffer (unbound dye)): 0.477 ± 0.024
Absolute quantum yield Φ [2, 5]: 0.660 ± 0.018
Extinction coefficient ε [2, 5]: 152 ± 17 M-1cm-1 × 103

CN(C)c1ccc2c(-c3ccccc3C(=O)[O-])c3ccc(N(C)C)cc3[o+]c2c1 [TMR, tetramethylrhodamine]
Absolute quantum yield Φ ([2]; HaloTag7-bound): 0.542 ± 0.013
Brightness ε × Φ ([2]; HaloTag7-bound): 55 ± 3 M-1cm-1 × 103
Extinction coefficient ε ([2]; HaloTag7-bound): 101 ± 08 M-1cm-1 × 103
Brightness ε × Φ ([2]; buffer): 39 ± 2 M-1cm-1 × 103
Extinction coefficient ε ([2]; buffer): 089 ± 11 M-1cm-1 × 103
Absolute quantum yield Φ ([2]; buffer (unbound dye)): 0.44 ± 0.01 and 0.439 ± 0.011
Absolute quantum yield Φ [2, 5]: 0.73 ± 0.02 and 0.728 ± 0.019
Brightness ε × Φ [2, 5]: 75 ± 1 M-1cm-1 × 103
Extinction coefficient ε [2, 5]: 103 ± 21 M-1cm-1 × 103
pKd (cpRho-tag): 8.17
pKd (BABP): 4.47
pKd (SAV2435): 4.77

CN(C)c1ccc2c(-c3cc(C(=O)NCCOCCOCCCCCCCl)ccc3C(=O)[O-])c3ccc(=[N+](C)C)cc-3oc2c1 [TMR-HTL, tetramethylrhodamine-6-carboxyl HaloTag Ligand]
pKd (Rho-tag [3]): 5.01

CN(C)c1ccc2c(-c3cc(C(=O)NCCOCCOCCCCCNS(C)(=O)=O)ccc3C(=O)[O-])c3ccc(=[N+](C)C)cc-3oc2c1 [TMR-S5 (xHTL), tetramethylrhodamine-6-carboxyl exchangeable HaloTag Ligand S5]
Kd (Rho-tag [4]): 18.8 µM

tetramethylrhodamine-6-carboxyl SNAP-tag ligand BG (benzylguanine) [TMR-BG]
Kd (Rho-tag [4]): 0.4 µM

tetramethylrhodamine-6-carboxyl SNAP-tag ligand CP (chloropyrimidine) [TMR-CP]
Kd (Rho-tag [4]): 1.9 µM
